US9248109B2, “High penetration prodrug compositions of peptides and peptide-related compounds” (priority 2009, dated 2016)
Counter-ions that a name gives are not always drawn. Non-standard residues stand in square brackets, D forms with d. Residues, ends and D or L forms follow the SMILES beside them. *: point of attachment. Arg(NO2) = N=C(NCCC[C@H](N)C(=O)O)N[N+](=O)[O-]; X1 = CCCCO*

Test system: obese mice (SLAC/DB/DB)
Assay: Anti-obese activity, transdermal, obese female DB/DB mice (third experiment)
Type: in vivo, mouse
Conditions: for Weight (g) (Day 1) / Blood Glucose Levels (day 1) (mg/dL, no fasting): baseline; for effect on body weights and blood glucose levels of obese mice (in words): 15, 1.5 and 0.5 mg/kg transdermal twice per day for 30 days
Experimental: In a third experiment, 40 obese female DB/DB mice (SLAC/DB/DB mice, 16 weeks old, 55-60 g) were divided into 4 groups. In group A, 0.1 ml of water was administered to the back of mouse (n=10) twice per day for 30 days. In Groups B, C, and D, 15 mg/kg, 1.5 mg/kg, and 0.5 mg/kg of H-Val-Pro-Gly-Pro-Arg(NO2)-OCH(CH3)2.HCl(SEQ ID NO: 197) in 0.1 ml of water was administered transdermally to the back of mouse (n=10) twice per day for 30 days respectively.
In a third experiment, 40 obese female DB/DB mice (SLAC/DB/DB) mice (16 weeks old, 55-60 g) were divided into 4 groups. In group A, 0.1 ml of water was administered to the back of mouse (n=10) twice per day for 30 days. In Groups B, C, and D, 15 mg/kg, 1.5 mg/kg, and 0.5 mg/kg of H-Val-Pro-Gly-Pro-Arg(diAc)-OCH2CH2CH2CH3.HCl(SEQ ID NO: 198) in 0.1 ml of water was administered transdermally to the back of mouse (n=10) twice per day for 30 days respectively.
In a third experiment, 40 obese female DB/DB mice (SLAC/DB/DB) mice (16 weeks old, 53-61 g) were divided into 4 groups. In group A, 0.1 ml of water was administered to the back of mouse (n=10) twice per day for 30 days. In Groups B, C, and D, 15 mg/kg, 1.5 mg/kg, and 0.5 mg/kg of H-Ala-Pro-Gly-Pro-Arg(NO2)—OCH2CH2CH2CH3.HCl(SEQ ID NO: 199) in 0.1 ml of water was administered transdermally to the back of mouse (n=10) twice per day for 30 days respectively.
In a third experiment, 40 obese female DB/DB mice (SLAC/DB/DB) mice (16 weeks old, 53-61 g) were divided into 4 groups. In group A, 0.1 ml of water was administered to the back of mouse (n=10) twice per day for 30 days. In Groups B, C, and D, 15 mg/kg, 1.5 mg/kg, and 0.5 mg/kg of H-Val-Pro-Asp(OEt)-Pro-Arg(NO2)-OCH2CH2CH2CH3.HCl(SEQ ID NO: 200) in 0.1 ml of water was administered transdermally to the back of mouse (n=10) twice per day for 30 days respectively.

[1] = 0.5 mg/kg transdermal twice per day for 30 days
[2] = 0.5 mg/kg transdermal twice per day
[3] = 1.5 mg/kg transdermal twice per day for 30 days
[4] = 1.5 mg/kg transdermal twice per day
[5] = 15 mg/kg transdermal twice per day for 30 days
[6] = 15 mg/kg transdermal twice per day

Molecule: CCCCOC(=O)[C@H](CCCNC(=N)N[N+](=O)[O-])NC(=O)[C@@H]1CCCN1C(=O)CNC(=O)[C@@H]1CCCN1C(=O)[C@H](C)N [H-Ala-Pro-Gly-Pro-Arg(NO2)—OCH2CH2CH2CH3.HCl] (HELM PEPTIDE1{A.P.G.P.[N=C(NCCC[C@H](N[*:1])C(=O)[*:2])N[N+](=O)[O-]].[CCCCO[*:1]]}$$$$V2.0)
- Weight (g) (Day 30) [1]: 54.7 ± 2.7 g
- Blood Glucose Levels (day 30) (mg/dL, no fasting) [1]: 159.4 ± 24.4 mg/dL
- Weight (g) (Day 1) [2]: 58.4 ± 2.9 g
- Blood Glucose Levels (day 1) (mg/dL, no fasting) [2]: 197.6 ± 28.2 mg/dL
- Weight (g) (Day 30) [3]: 53.3 ± 3.2 g
- Blood Glucose Levels (day 30) (mg/dL, no fasting) [3]: 148.4 ± 16.4 mg/dL
- Weight (g) (Day 1) [4]: 57.1 ± 2.8 g
- Blood Glucose Levels (day 1) (mg/dL, no fasting) [4]: 199.4 ± 23.7 mg/dL
- Weight (g) (Day 30) [5]: 51.9 ± 2.7 g
- Blood Glucose Levels (day 30) (mg/dL, no fasting) [5]: 139.5 ± 15.9 mg/dL
- Weight (g) (Day 1) [6]: 57.2 ± 2.2 g
- Blood Glucose Levels (day 1) (mg/dL, no fasting) [6]: 202.4 ± 21.4 mg/dL
- effect on body weights and blood glucose levels of obese mice (in words): reduced body weights and blood glucose levels of obese mice effectively

Molecule: CCCCOC(=O)[C@H](CCCNC(=N)N[N+](=O)[O-])NC(=O)[C@@H]1CCCN1C(=O)[C@H](CC(=O)OCC)NC(=O)[C@@H]1CCCN1C(=O)[C@@H](N)C(C)C [H-Val-Pro-Asp(OEt)-Pro-Arg(NO2)—OCH2CH2CH2CH3.HCl] (H-VPD(OEt)P[Arg(NO2)]-X1)
- Weight (g) (Day 30) [1]: 56.7 ± 2.8 g
- Blood Glucose Levels (day 30) (mg/dL, no fasting) [1]: 171.8 ± 28.4 mg/dL
- Weight (g) (Day 1) [2]: 58.7 ± 3.3 g
- Blood Glucose Levels (day 1) (mg/dL, no fasting) [2]: 199.6 ± 31.5 mg/dL
- Weight (g) (Day 30) [3]: 54.3 ± 2.9 g
- Blood Glucose Levels (day 30) (mg/dL, no fasting) [3]: 152.4 ± 26.8 mg/dL
- Weight (g) (Day 1) [4]: 58.8 ± 3.1 g
- Blood Glucose Levels (day 1) (mg/dL, no fasting) [4]: 203.4 ± 25.8 mg/dL
- Weight (g) (Day 30) [5]: 52.4 ± 3.4 g
- Blood Glucose Levels (day 30) (mg/dL, no fasting) [5]: 145.4 ± 25.7 mg/dL
- Weight (g) (Day 1) [6]: 57.9 ± 3.8 g
- Blood Glucose Levels (day 1) (mg/dL, no fasting) [6]: 203.4 ± 27.4 mg/dL
- effect on body weights and blood glucose levels of obese mice (in words): reduced body weights and blood glucose levels of obese mice effectively

Molecule: CC(C)OC(=O)[C@H](CCCNC(=N)N[N+](=O)[O-])NC(=O)[C@@H]1CCCN1C(=O)CNC(=O)[C@@H]1CCCN1C(=O)[C@@H](N)C(C)C [H-Val-Pro-Gly-Pro-Arg(NO2)-OCH(CH3)2•HCl, H-Val-Pro-Gly-Pro-Arg(NO2)—OCH(CH3)2.HCl] (HELM PEPTIDE1{V.P.G.P.[N=C(NCCC[C@H](N[*:1])C(=O)[*:2])N[N+](=O)[O-]].[CC(C)O[*:1]]}$$$$V2.0)
- Weight (g) (Day 30) [1]: 54.2 ± 2.9 g
- Blood Glucose Levels (day 30) (mg/dL, no fasting) [1]: 153.4 ± 26.4 mg/dL
- Weight (g) (Day 1) [2]: 56.2 ± 2.7 g
- Blood Glucose Levels (day 1) (mg/dL, no fasting) [2]: 199.7 ± 26.8 mg/dL
- Weight (g) (Day 30) [3]: 52.3 ± 1.9 g
- Blood Glucose Levels (day 30) (mg/dL, no fasting) [3]: 142.4 ± 18.7 mg/dL
- Weight (g) (Day 1) [4]: 57.2 ± 2.1 g
- Blood Glucose Levels (day 1) (mg/dL, no fasting) [4]: 201.4 ± 23.1 mg/dL
- Weight (g) (Day 30) [5]: 52.1 ± 2.2 g
- Blood Glucose Levels (day 30) (mg/dL, no fasting) [5]: 137.4 ± 25.2 mg/dL
- Weight (g) (Day 1) [6]: 57.7 ± 1.6 g
- Blood Glucose Levels (day 1) (mg/dL, no fasting) [6]: 206.4 ± 21.8 mg/dL
- effect on body weights and blood glucose levels of obese mice (in words): reduced body weights and blood glucose levels of obese mice effectively

Molecule: H-Val-Pro-Gly-Pro-Arg(diAc)-OCH2CH2CH2CH3.HCl
- Weight (g) (Day 30) [1]: 59.3 ± 3.2 g
- Blood Glucose Levels (day 30) (mg/dL, no fasting) [1]: 179.4 ± 21.1 mg/dL
- Weight (g) (Day 1) [2]: 57.9 ± 2.7 g
- Blood Glucose Levels (day 1) (mg/dL, no fasting) [2]: 196.9 ± 29.8 mg/dL
- Weight (g) (Day 30) [3]: 58.3 ± 2.9 g
- Blood Glucose Levels (day 30) (mg/dL, no fasting) [3]: 166.4 ± 20.8 mg/dL
- Weight (g) (Day 1) [4]: 57.6 ± 3.8 g
- Blood Glucose Levels (day 1) (mg/dL, no fasting) [4]: 195.4 ± 36.7 mg/dL
- Weight (g) (Day 30) [5]: 54.7 ± 3.8 g
- Blood Glucose Levels (day 30) (mg/dL, no fasting) [5]: 152.4 ± 17.9 mg/dL
- Weight (g) (Day 1) [6]: 56.7 ± 2.7 g
- Blood Glucose Levels (day 1) (mg/dL, no fasting) [6]: 201.5 ± 24.6 mg/dL
- effect on body weights and blood glucose levels of obese mice (in words): reduced body weights and blood glucose levels of obese mice effectively
